# Experimental data taken from patent US7943770B2, “Fused quinoline derivative and use thereof” (Takeda Pharmaceutical Company Limited, priority 2004, dated 2011).
# Target: T1, hNK2 receptor (Homo sapiens, UniProt P21452)
# T1 construct: host or cells: CHO cells
# T1 sequence (P21452 1-398): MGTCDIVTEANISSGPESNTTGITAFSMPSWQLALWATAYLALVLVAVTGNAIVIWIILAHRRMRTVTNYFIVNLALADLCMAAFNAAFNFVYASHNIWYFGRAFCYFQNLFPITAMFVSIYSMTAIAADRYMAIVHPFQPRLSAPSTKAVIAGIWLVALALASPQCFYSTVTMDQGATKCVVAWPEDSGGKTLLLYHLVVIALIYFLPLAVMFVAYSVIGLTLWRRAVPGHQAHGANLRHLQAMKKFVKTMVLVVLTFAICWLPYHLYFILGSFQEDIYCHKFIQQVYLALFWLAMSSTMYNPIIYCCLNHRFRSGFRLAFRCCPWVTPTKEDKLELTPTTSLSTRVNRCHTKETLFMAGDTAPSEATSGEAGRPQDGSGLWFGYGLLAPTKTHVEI
# Experiment: Radio-ligand ([125I]-NKA) receptor binding inhibitory activity using membrane fraction of hNK2 receptor-expressing CHO cell
# Conditions: membrane fraction of hNK2 receptor-expressing CHO cells, 25° C., 30 min
# Procedure: hNK2 receptor-expressing CHO cells (produced by EUROSCREEN) were cultured in HAM-F12 medium containing 400 μg/ml Geneticin, 100 U/mL penicillin, 100 μg/mL streptomycin and 10% inactivated serum. The medium was removed and adhered cells were washed with PBS, and PBS containing 5 mM EDTA was added to detach the cells from the flask. The cells were recovered by centrifugation, suspended in suspending buffer A (15 mM Tris-HCl (pH 7.5), 2 mM MgCl2, 0.3 mM EDTA, 1 mM EGTA), disrupted by POLYTRON homogenizer (manufactured by KINEMATICA) and centrifuged at 800×g for 10 min. The supernatant was recovered and ultracentrifuged at 100000×g for 25 min. The precipitated fraction was suspended in suspending buffer B (7.5 mM Tris-HCl (pH 7.5), 12.5 mM MgCl2, 0.3 mM EDTA, 1 mM, […], 250 mM Sucrose) and cryopreserved (at −80° C.) as a receptor specimen.
# An assay buffer (50 μl, 50 mM Tris-HCl (pH 7.4), 0.02% bovine serum albumin, 2 μg/mL chymostatin, 40 μg/mL bacitracin, 40 μg/mL APMSF, 3 mM MnCl2) was added to a 96 well microassay plate. Thereto was added a 20 μg/mL membrane specimen suspended in the assay buffer (50 μL). An assay buffer (50 μL) containing 2% dimethyl sulfoxide was added to examine the total binding, 4 unlabeled NKA (produced by Peptide Institute, Inc.) solution (50 μL) diluted with an assay buffer containing 2% dimethyl sulfoxide was added to examine non-specific binding, and a test compound diluted with an assay buffer (50 containing 2% dimethyl sulfoxide) was added to examine the binding inhibitory activity of the test compound. Furthermore, […] [^125I]-NKA (produced by Amersham Biosciences) solution (50 μL) was added to each well.
# After reaction at 25° C. for 30 min., the reaction was stopped by rapid filtration on a unifilter plate (GF/C) (manufactured by PerkinElmer) using a cell harvester (manufactured by PerkinElmer) and the cells were washed 5 times with 50 mM Tris-HCl (pH 7.4) buffer containing 0.02% bovine serum albumin (250 μL). The GF/C filter plate was dried and 20 μl, of MicroScinti-O (manufactured by PerkinElmer) was added and the radioactivity was measured in Topcount (manufactured by PerkinElmer). The GF/C filter plate, which had been immersed in 0.3% polyethyleneimine for one day, was used. Specific binding is shown by the value obtained by subtracting non-specific binding from the total binding. The binding inhibitory activity of the test compound is shown by the ratio of the value obtained by subtracting the measured value associated with the addition of the test compound from the total binding, to the value of the specific binding.
row,IC50 [nM],Structure (SMILES)
1,< 10,"O=C(N[C@@H]1CCCC[C@@H]1C(=O)N1CC[C@@H]2[C@H](c3ccccc3)Nc3ccccc3[C@@H]21)c1ccncc1 [Example 91, N-((1R,2S)-2-{[(3aR,4R,9bR)-4-Phenyl-2,3,3a,4,5,9b-hexahydro-1H-pyrrolo[3,2-c]quinolin-1-yl]carbonyl}cyclohexyl)isonicotinamide]"
2,< 10,"O=C(N[C@@H]1CCCC[C@@H]1C(=O)N1CC[C@@H]2[C@H](c3ccccc3)Nc3ccccc3[C@@H]21)c1ccc(F)cc1 [Example 92, 4-Fluoro-N-((1R,2S)-2-{[(3aR,4R,9bR)-4-phenyl-2,3,3a,4,5,9b-hexahydro-1H-pyrrolo[3,2-c]quinolin-1-yl]carbonyl}cyclohexyl)benzamide]"
3,< 10,"CCCCCC(=O)N[C@@H]1CCCC[C@@H]1C(=O)N1CC[C@@H]2[C@H](c3ccccc3)Nc3ccccc3[C@@H]21 [Example 93, N-((1R,2S)-2-{[(3aR,4R,9bR)-4-Phenyl-2,3,3a,4,5,9b-hexahydro-1H-pyrrolo[3,2-c]quinolin-1-yl]carbonyl}cyclohexyl)hexanamide]"
4,< 10,"COc1ccccc1C(=O)N[C@@H]1CCCC[C@@H]1C(=O)N1CC[C@@H]2[C@H](c3ccccc3)Nc3ccccc3[C@@H]21 [Example 94, 2-Methoxy-N-((1R,2S)-2-{[(3aR,4R,9bR)-4-phenyl-2,3,3a,4,5,9b-hexahydro-1H-pyrrolo[3,2-c]quinolin-1-yl]carbonyl}cyclohexyl)benzamide]"
5,< 10,"COc1cccc(C(=O)N[C@@H]2CCCC[C@@H]2C(=O)N2CC[C@@H]3[C@H](c4ccccc4)Nc4ccccc4[C@@H]32)c1 [Example 95, 3-Methoxy-N-((1R,2S)-2-{[(3aR,4R,9bR)-4-phenyl-2,3,3a,4,5,9b-hexahydro-1H-pyrrolo[3,2-c]quinolin-1-yl]carbonyl}cyclohexyl)benzamide]"
6,< 10,"O=C(N[C@@H]1CCCC[C@@H]1C(=O)N1CC[C@@H]2[C@H](c3ccccc3)Nc3ccccc3[C@@H]21)c1cccc(F)c1 [Example 96, 3-Fluoro-N-((1R,2S)-2-{[(3aR,4R,9bR)-4-phenyl-2,3,3a,4,5,9b-hexahydro-1H-pyrrolo[3,2-c]quinolin-1-yl]carbonyl}cyclohexyl)benzamide]"
7,< 1,"Cc1cccc(C(=O)N[C@@H]2CCCC[C@@H]2C(=O)N2CC[C@@H]3[C@H](c4ccccc4)Nc4ccccc4[C@@H]32)c1 [Example 98, 3-Methyl-N-((1R,2S)-2-{[(3aR,4R,9bR)-4-phenyl-2,3,3a,4,5,9b-hexahydro-1H-pyrrolo[3,2-c]quinolin-1-yl]carbonyl}cyclohexyl)benzamide]"
8,< 10,"COC(=O)c1ccc(C(=O)N[C@@H]2CCCC[C@@H]2C(=O)N2CC[C@@H]3[C@H](c4ccccc4)Nc4ccccc4[C@@H]32)cc1 [Example 100, Methyl 4-{[((1R,2S)-2-{[(3aR,4R,9bR)-4-phenyl-2,3,3a,4,5,9b-hexahydro-1H-pyrrolo[3,2-c]quinolin-1-yl]carbonyl}cyclohexyl)amino]carbonyl}benzoate]"
9,< 1,"O=C(/C=C/c1ccccc1)N[C@@H]1CCCC[C@@H]1C(=O)N1CC[C@@H]2[C@H](c3ccccc3)Nc3ccccc3[C@@H]21 [Example 101, (2E)-3-Phenyl-N-((1R,2S)-2-{[(3aR,4R,9bR)-4-phenyl-2,3,3a,4,5,9b-hexahydro-1H-pyrrolo[3,2-c]quinolin-1-yl]carbonyl}cyclohexyl)acrylamide]"
10,< 10,CCOC(=O)CCC(=O)N[C@@H]1CCCC[C@@H]1C(=O)N1CC[C@@H]2[C@H](c3ccccc3)Nc3ccccc3[C@@H]21 [Example 108]

# Further lines, the compound ahead of its results:
row,Structure (SMILES),IC50 [nM]
1,"O=C(N[C@@H]1CCCC[C@@H]1C(=O)N1CC[C@@H]2[C@H](c3ccccc3)Nc3ccccc3[C@@H]21)c1cccs1 [Example 89, N-((1R,2S)-2-{[(3aR,4R,9bR)-4-Phenyl-2,3,3a,4,5,9b-hexahydro-1H-pyrrolo[3,2-c]quinolin-1-yl]carbonyl}cyclohexyl)thiophene-2-carboxamide]",< 10
2,"COc1ccc(C(=O)N[C@@H]2CCCC[C@@H]2C(=O)N2CC[C@@H]3[C@H](c4ccccc4)Nc4ccccc4[C@@H]32)cc1 [Example 90, 4-Methoxy-N-((1R,2S)-2-{[(3aR,4R,9bR)-4-phenyl-2,3,3a,4,5,9b-hexahydro-1H-pyrrolo[3,2-c]quinolin-1-yl]carbonyl}cyclohexyl)benzamide]",< 1
3,"Cc1ccccc1C(=O)N[C@@H]1CCCC[C@@H]1C(=O)N1CC[C@@H]2[C@H](c3ccccc3)Nc3ccccc3[C@@H]21 [Example 97, 2-Methyl-N-((1R,2S)-2-{[(3aR,4R,9bR)-4-phenyl-2,3,3a,4,5,9b-hexahydro-1H-pyrrolo[3,2-c]quinolin-1-yl]carbonyl}cyclohexyl)benzamide]",< 10
4,"Cc1ccc(C(=O)N[C@@H]2CCCC[C@@H]2C(=O)N2CC[C@@H]3[C@H](c4ccccc4)Nc4ccccc4[C@@H]32)cc1 [Example 99, 4-Methyl-N-((1R,2S)-2-{[(3aR,4R,9bR)-4-phenyl-2,3,3a,4,5,9b-hexahydro-1H-pyrrolo[3,2-c]quinolin-1-yl]carbonyl}cyclohexyl)benzamide]",< 10
5,"N#Cc1ccc(C(=O)N[C@@H]2CCCC[C@@H]2C(=O)N2CC[C@@H]3[C@H](c4ccccc4)Nc4ccccc4[C@@H]32)cc1 [Example 102, 4-Cyano-N-((1R,2S)-2-([(3aR,4R,9bR)-4-phenyl-2,3,3a,4,5,9b-hexahydro-1H-pyrrolo[3,2-c]quinolin-1-yl]carbonyl)cyclohexyl)benzamide]",< 10
6,"O=C(CCc1ccccc1)N[C@@H]1CCCC[C@@H]1C(=O)N1CC[C@@H]2[C@H](c3ccccc3)Nc3ccccc3[C@@H]21 [Example 103, 3-Phenyl-N-((1R,2S)-2-{[(3aR,4R,9bR)-4-phenyl-2,3,3a,4,5,9b-hexahydro-1H-pyrrolo[3,2-c]quinolin-1-yl]carbonyl}cyclohexyl)propanamide]",< 1
7,"COc1ccc(C(=O)N[C@@H]2CCCC[C@@H]2C(=O)N2CC[C@@H]3[C@H](c4ccccc4)Nc4ccccc4[C@@H]32)cc1OC [Example 104, 3,4-Dimethoxy-N-((1R,2S)-2-{[(3aR,4R,9bR)-4-phenyl-2,3,3a,4,5,9b-hexahydro-1H-pyrrolo[3,2-c]quinolin-1-yl]carbonyl}cyclohexyl)benzamide]",< 1
8,"COc1ccc(/C=C/C(=O)N[C@@H]2CCCC[C@@H]2C(=O)N2CC[C@@H]3[C@H](c4ccccc4)Nc4ccccc4[C@@H]32)cc1 [Example 105, (2E)-3-(4-Methoxyphenyl)-N-((1R,2S)-2-{[(3aR,4R,9bR)-4-phenyl-2,3,3a,4,5,9b-hexahydro-1H-pyrrolo[3,2-c]quinolin-1-yl]carbonyl}cyclohexyl)acrylamide]",< 1
9,"O=C(/C=C/c1ccc(C(F)(F)F)cc1)N[C@@H]1CCCC[C@@H]1C(=O)N1CC[C@@H]2[C@H](c3ccccc3)Nc3ccccc3[C@@H]21 [Example 106, (2E)-N-((1R,2S)-2-{[(3aR,4R,9bR)-4-Phenyl-2,3,3a,4,5,9b-hexahydro-1H-pyrrolo[3,2-c]quinolin-1-yl]carbonyl}cyclohexyl)-3-[4-(trifluoromethyl)phenyl]acrylamide]",< 10
10,"O=C(N[C@@H]1CCCC[C@@H]1C(=O)N1CC[C@@H]2[C@H](c3ccccc3)Nc3ccccc3[C@@H]21)c1ccc2ccccc2c1 [Example 107, N-((1R,2S)-2-{[(3aR,4R,9bR)-4-Phenyl-2,3,3a,4,5,9b-hexahydro-1H-pyrrolo[3,2-c]quinolin-1-yl]carbonyl}cyclohexyl)-2-naphthamide]",< 1
11,"O=C(CCCCCBr)N[C@@H]1CCCC[C@@H]1C(=O)N1CC[C@@H]2[C@H](c3ccccc3)Nc3ccccc3[C@@H]21 [Example 109, 6-Bromo-N-((1R,2S)-2-{[(3aR,4R,9bR)-4-phenyl-2,3,3a,4,5,9b-hexahydro-1H-pyrrolo[3,2-c]quinolin-1-yl]carbonyl}cyclohexyl)hexanamide]",< 10
